From patent US20240351988A1, “ARYL HYDROCARBON RECEPTOR MODULATORS AND THEIR USE IN THE TREATMENT OF DISEASES AND DISORDERS” (Allianthera (Suzhou) Biopharmaceutical Co., Ltd., priority 2021, published 2024)
pIC50: −log10 of the molar value. Values joined by “and” are separate entries in the source; they are usually repeats but may differ in a detail not shown here. Identical values can stand only once.

Target: T1, Human Aryl Hydrocarbon Receptor (AhR) (Homo sapiens, UniProt P35869)
T1 construct: purchased INDIGO Bioscience #1B06001-32; host or cells: AhR Reporter Cell (kit's proprietary reporter cells)
T1 sequence (P35869 11-848): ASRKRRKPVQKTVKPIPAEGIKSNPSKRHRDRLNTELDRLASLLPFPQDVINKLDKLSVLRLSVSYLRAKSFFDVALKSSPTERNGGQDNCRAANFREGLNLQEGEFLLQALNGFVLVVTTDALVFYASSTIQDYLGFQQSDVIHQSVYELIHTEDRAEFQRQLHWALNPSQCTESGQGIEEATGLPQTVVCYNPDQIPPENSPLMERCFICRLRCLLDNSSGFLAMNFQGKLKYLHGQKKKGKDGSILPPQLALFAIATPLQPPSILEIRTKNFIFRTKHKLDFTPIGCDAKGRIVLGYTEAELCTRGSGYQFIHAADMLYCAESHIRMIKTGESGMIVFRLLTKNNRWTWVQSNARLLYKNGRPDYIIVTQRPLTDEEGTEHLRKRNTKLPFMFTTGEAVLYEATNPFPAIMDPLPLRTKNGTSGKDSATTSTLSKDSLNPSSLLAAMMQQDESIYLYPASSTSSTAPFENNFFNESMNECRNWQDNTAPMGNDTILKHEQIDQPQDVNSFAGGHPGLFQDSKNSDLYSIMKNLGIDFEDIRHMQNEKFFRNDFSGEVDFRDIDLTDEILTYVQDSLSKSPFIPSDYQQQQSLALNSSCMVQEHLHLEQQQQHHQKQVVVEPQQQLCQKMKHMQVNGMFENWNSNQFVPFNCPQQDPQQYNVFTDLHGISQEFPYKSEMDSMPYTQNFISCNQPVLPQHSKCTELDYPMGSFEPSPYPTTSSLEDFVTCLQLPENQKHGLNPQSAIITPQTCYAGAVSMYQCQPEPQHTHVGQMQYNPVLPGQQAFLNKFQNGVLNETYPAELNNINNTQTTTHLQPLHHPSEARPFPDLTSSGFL
Assay: AHR antagonist reporter assay in human cell line (INDIGO AhR Reporter Assay System, kynurenic acid activated)
Assay type: cell-based
Conditions: 200 μM kynurenic acid, 24 hours, luciferase; read-out: AhR Reporter Assay KA Antagonist Mode: IC50
Description: The AhR reporter assay was performed following the protocol of the Human Aryl Hydrocarbon Receptor (AhR) Reporter Assay System (INDIGO Bioscience, #1B06001-32). AhR Reporter Cell was thawed and pre-incubated in Cell Recovery Medium (CRM) for 6 hours. The media was then removed and the cells were incubated with Compound Screening Medium (CSM) supplemented with 200 μM kynurenic acid for 24 hours in the absence (negative control) or presence of increasing concentrations of test compounds (typical dilution: […], 3.2 nM, 16 nM, 80 nM, 400 nM, 2 μM, 10 μM in duplicates). For positive inhibition control, cells activated with 200 μM kynurenic acid were incubated in the presence of literature AHR antagonists; alternatively un-activated cells were used as positive inhibition control. Following 24 hours incubation, the media was removed and Luciferase Detection Reagent (LDR) added. The firefly luciferase activity was quantified using a plate reader. Results were normalized by positive and negative controls.

pIC50, < 6.40 and > 7.00:
COC[C@H](C)NC(=O)c1cc(-c2ccc(C)cn2)nn(-c2cnn(C)c2)c1=O [Compound 67]

pIC50, > 7.00:
COCC(C)NC(=O)c1cc(-c2ccc(Cl)cc2)nn(-c2cccc(F)c2)c1=O (stereo not drawn) [Compound 7], O=C(NC1CCCCNC1=O)c1cc(-c2ccc(Cl)cc2)nn(-c2cccc(F)c2)c1=O (stereo not drawn) [Compound 28]

pIC50, 6.40 to 7.00:
CN(C)C(=O)CNC(=O)c1cc(-c2ccc(Cl)cc2)nn(-c2cccc(F)c2)c1=O [Compound 2], COC[C@H](C)NC(=O)c1cc(-c2ccc(C)cc2)nn(-c2cnn(C)c2)c1=O [Compound 68]

pIC50, < 6.40:
CC(=O)N(C)CC(C)NC(=O)c1cc(-c2ccc(Cl)cc2)nn(-c2cccc(F)c2)c1=O (stereo not drawn) [Compound 3], NC(=O)c1cc(-c2ccc(Cl)cc2)nn(-c2cccc(F)c2)c1=O [Compound 4], O=C(NC1CNC1)c1cc(-c2ccc(Cl)cc2)nn(-c2cccc(F)c2)c1=O [Compound 5], COCCNC(=O)c1cc(-c2ccc(Cl)cc2)nn(-c2cccc(F)c2)c1=O [Compound 6], NC(=O)CNC(=O)c1cc(-c2ccc(Cl)cc2)nn(-c2cccc(F)c2)c1=O [Compound 8], CNC(=O)CNC(=O)c1cc(-c2ccc(Cl)cc2)nn(-c2cccc(F)c2)c1=O [Compound 9], CC(NC(=O)c1cc(-c2ccc(Cl)cc2)nn(-c2cccc(F)c2)c1=O)C(=O)O (stereo not drawn) [Compound 10], CC(NC(=O)c1cc(-c2ccc(Cl)cc2)nn(-c2cccc(F)c2)c1=O)C(N)=O (stereo not drawn) [Compound 11], CC(CN)NC(=O)c1cc(-c2ccc(Cl)cc2)nn(-c2cccc(F)c2)c1=O (stereo not drawn) [Compound 14], CNCC(C)NC(=O)c1cc(-c2ccc(Cl)cc2)nn(-c2cccc(F)c2)c1=O (stereo not drawn) [Compound 15], CC(CN(C)C)NC(=O)c1cc(-c2ccc(Cl)cc2)nn(-c2cccc(F)c2)c1=O (stereo not drawn) [Compound 16], NCCNC(=O)c1cc(-c2ccc(Cl)cc2)nn(-c2cccc(F)c2)c1=O [Compound 17], CNCCNC(=O)c1cc(-c2ccc(Cl)cc2)nn(-c2cccc(F)c2)c1=O [Compound 18], CN(C)CCNC(=O)c1cc(-c2ccc(Cl)cc2)nn(-c2cccc(F)c2)c1=O [Compound 19], CC(=O)N(C)CCNC(=O)c1cc(-c2ccc(Cl)cc2)nn(-c2cccc(F)c2)c1=O [Compound 20], CNC(=O)c1cc(-c2ccc(Cl)cc2)nn(-c2cccc(F)c2)c1=O [Compound 21], CN(CCO)C(=O)c1cc(-c2ccc(Cl)cc2)nn(-c2cccc(F)c2)c1=O [Compound 22], CN(CCN)C(=O)c1cc(-c2ccc(Cl)cc2)nn(-c2cccc(F)c2)c1=O [Compound 23], O=C(NC1COC1)c1cc(-c2ccc(Cl)cc2)nn(-c2cccc(F)c2)c1=O [Compound 24], CC(=O)N1CC(NC(=O)c2cc(-c3ccc(Cl)cc3)nn(-c3cccc(F)c3)c2=O)C1 [Compound 30], Cn1cc(-n2nc(-c3ccc(Cl)cc3)cc(C(=O)NCC(=O)O)c2=O)cn1 [Compound 33], Cn1cc(-n2nc(-c3ccc(Cl)cc3)cc(C(=O)NCC(N)=O)c2=O)cn1 [Compound 34], CNC(=O)CNC(=O)c1cc(-c2ccc(Cl)cc2)nn(-c2cnn(C)c2)c1=O [Compound 35], CN(C)C(=O)CNC(=O)c1cc(-c2ccc(Cl)cc2)nn(-c2cnn(C)c2)c1=O [Compound 36], CC(NC(=O)c1cc(-c2ccc(Cl)cc2)nn(-c2cnn(C)c2)c1=O)C(=O)O (stereo not drawn) [Compound 37], CNCCNC(=O)c1cc(-c2ccc(Cl)cc2)nn(-c2cnn(C)c2)c1=O [Compound 46], CN(C)CCNC(=O)c1cc(-c2ccc(Cl)cc2)nn(-c2cnn(C)c2)c1=O [Compound 47], COC[C@H](C)NC(=O)c1cc(-c2ccc(S(C)(=O)=O)cc2)nn(-c2cnn(C)c2)c1=O [Compound 66]
